Source: ChEMBL document CHEMBL1133591, “Potent derivatives of glucagon-like peptide-1 with pharmacokinetic properties suitable for once daily administration” (J Med Chem, 2000)
Peptide text beside a SMILES is read from it. * marks the point of attachment. Desaminohistidyl = O=C(CCc1c[nH]cn1)*; Octanoyl = CCCCCCCC(=O)*

target: Glucagon-like peptide 1 receptor (Homo sapiens, UniProt P43220); assay: Potency measured using recombinant human GLP-1 receptor expressed in Baby Hamster Kidney (BHK)cells; format: cell-based
Sequence (P43220 whole entry): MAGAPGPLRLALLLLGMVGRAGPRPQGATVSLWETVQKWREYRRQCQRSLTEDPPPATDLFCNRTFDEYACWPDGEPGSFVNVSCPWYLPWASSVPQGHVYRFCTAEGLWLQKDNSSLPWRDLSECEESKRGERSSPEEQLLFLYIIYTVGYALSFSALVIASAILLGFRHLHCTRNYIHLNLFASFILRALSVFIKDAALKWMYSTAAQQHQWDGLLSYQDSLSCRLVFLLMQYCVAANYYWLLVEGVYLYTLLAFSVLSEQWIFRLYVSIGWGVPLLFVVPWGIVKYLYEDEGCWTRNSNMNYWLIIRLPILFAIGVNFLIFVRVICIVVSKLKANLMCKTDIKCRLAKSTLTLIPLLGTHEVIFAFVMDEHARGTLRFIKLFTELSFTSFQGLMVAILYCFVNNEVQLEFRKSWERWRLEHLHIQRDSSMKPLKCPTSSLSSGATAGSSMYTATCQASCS

Row | EC50 [nM] | Compound
1 | 1.26 | CCCCCCCCCCCCCCCC(=O)NC(CCC(=O)NCCCC[C@H](NC(=O)[C@@H](N)Cc1c[nH]cn1)C(=O)N[C@@H](CCC(=O)O)C(=O)NCC(=O)N[C@H](C(=O)N[C@@H](Cc1ccccc1)C(=O)N[C@H](C(=O)N[C@@H](CO)C(=O)N[C@@H](CC(=O)O)C(=O)N[C@H](C(=O)N[C@@H](CO)C(=O)N[C@@H](CO)C(=O)N[C@@H](Cc1ccc(O)cc1)C(=O)N[C@@H](CC(C)C)C(=O)N[C@@H](CCC(=O)O)C(=O)NCC(=O)N[C@@H](CCC(N)=O)C(=O)N[C@@H](C)C(=O)N[C@@H](C)C(=O)N[C@@H](CCCN=C(N)N)C(=O)N[C@@H](CCC(=O)O)C(=O)N[C@@H](Cc1ccccc1)C(=O)N[C@H](C(=O)N[C@@H](C)C(=O)N[C@@H](Cc1c[nH]c2ccccc12)C(=O)N[C@@H](CC(C)C)C(=O)N[C@H](C(=O)N[C@@H](CCCN=C(N)N)C(=O)NCC(=O)N[C@@H](CCCN=C(N)N)C(=O)NCC(=O)O)C(C)C)[C@@H](C)CC)C(C)C)[C@@H](C)O)[C@@H](C)O)C(=O)O (some centres not stated)
2 | 0.053 | CCCCCCCCCCCCCCCC(=O)NC(CCC(=O)NCCCCC(NC(=O)CNC(=O)[C@H](CCCN=C(N)N)NC(=O)CNC(=O)[C@H](CCCN=C(N)N)NC(=O)[C@@H](NC(=O)[C@H](CC(C)C)NC(=O)[C@H](Cc1c[nH]c2ccccc12)NC(=O)[C@H](C)NC(=O)[C@@H](NC(=O)[C@H](Cc1ccccc1)NC(=O)[C@H](CCC(=O)O)NC(=O)[C@H](CCCN=C(N)N)NC(=O)[C@H](C)NC(=O)[C@H](C)NC(=O)[C@H](CCC(N)=O)NC(=O)CNC(=O)[C@H](CCC(=O)O)NC(=O)[C@H](CC(C)C)NC(=O)[C@H](Cc1ccc(O)cc1)NC(=O)[C@H](CO)NC(=O)[C@H](CO)NC(=O)[C@@H](NC(=O)[C@H](CC(=O)O)NC(=O)[C@H](CO)NC(=O)[C@@H](NC(=O)[C@H](Cc1ccccc1)NC(=O)[C@@H](NC(=O)CNC(=O)[C@H](CCC(=O)O)NC(=O)[C@H](C)NC(=O)[C@@H](N)Cc1c[nH]cn1)[C@@H](C)O)[C@@H](C)O)C(C)C)[C@@H](C)CC)C(C)C)C(=O)O)C(=O)O (some centres not stated)
3 | 0.0272 | CCCCCCCCCCCCCCCC(=O)NC(CCC(=O)NCCCCC(NC(=O)[C@H](CCC(=O)O)NC(=O)[C@H](CCCN=C(N)N)NC(=O)CNC(=O)[C@H](CCCN=C(N)N)NC(=O)[C@@H](NC(=O)[C@H](CC(C)C)NC(=O)[C@H](Cc1c[nH]c2ccccc12)NC(=O)[C@H](C)NC(=O)[C@@H](NC(=O)[C@H](Cc1ccccc1)NC(=O)[C@H](CCC(=O)O)NC(=O)[C@H](CCCN=C(N)N)NC(=O)[C@H](C)NC(=O)[C@H](C)NC(=O)[C@H](CCC(N)=O)NC(=O)CNC(=O)[C@H](CCC(=O)O)NC(=O)[C@H](CC(C)C)NC(=O)[C@H](Cc1ccc(O)cc1)NC(=O)[C@H](CO)NC(=O)[C@H](CO)NC(=O)[C@@H](NC(=O)[C@H](CC(=O)O)NC(=O)[C@H](CO)NC(=O)[C@@H](NC(=O)[C@H](Cc1ccccc1)NC(=O)[C@@H](NC(=O)CNC(=O)[C@H](CCC(=O)O)NC(=O)[C@H](C)NC(=O)[C@@H](N)Cc1c[nH]cn1)[C@@H](C)O)[C@@H](C)O)C(C)C)[C@@H](C)CC)C(C)C)C(=O)O)C(=O)O (some centres not stated)
4 | 0.115 | CCCCCCCCCCCCCCCCCC(=O)NC(CCC(=O)NCCCCC(NC(=O)CNC(=O)[C@H](CCCN=C(N)N)NC(=O)CNC(=O)[C@H](CCCN=C(N)N)NC(=O)[C@@H](NC(=O)[C@H](CC(C)C)NC(=O)[C@H](Cc1c[nH]c2ccccc12)NC(=O)[C@H](C)NC(=O)[C@@H](NC(=O)[C@H](Cc1ccccc1)NC(=O)[C@H](CCC(=O)O)NC(=O)[C@H](CCCN=C(N)N)NC(=O)[C@H](C)NC(=O)[C@H](C)NC(=O)[C@H](CCC(N)=O)NC(=O)CNC(=O)[C@H](CCC(=O)O)NC(=O)[C@H](CC(C)C)NC(=O)[C@H](Cc1ccc(O)cc1)NC(=O)[C@H](CO)NC(=O)[C@H](CO)NC(=O)[C@@H](NC(=O)[C@H](CC(=O)O)NC(=O)[C@H](CO)NC(=O)[C@@H](NC(=O)[C@H](Cc1ccccc1)NC(=O)[C@@H](NC(=O)CNC(=O)[C@H](CCC(=O)O)NC(=O)[C@H](C)NC(=O)[C@@H](N)Cc1c[nH]cn1)[C@@H](C)O)[C@@H](C)O)C(C)C)[C@@H](C)CC)C(C)C)C(=O)O)C(=O)O (some centres not stated)
5 | 0.687 | CCCCCCCCCCCCCCCC(=O)NC(CCC(=O)NCCCC[C@H](NC(=O)[C@H](C)NC(=O)[C@H](C)NC(=O)[C@H](CCC(N)=O)NC(=O)CNC(=O)[C@H](CCC(=O)O)NC(=O)[C@H](CC(C)C)NC(=O)[C@H](Cc1ccc(O)cc1)NC(=O)[C@H](CO)NC(=O)[C@H](CO)NC(=O)[C@@H](NC(=O)[C@H](CC(=O)O)NC(=O)[C@H](CO)NC(=O)[C@@H](NC(=O)[C@H](Cc1ccccc1)NC(=O)[C@@H](NC(=O)CNC(=O)[C@H](CCC(=O)O)NC(=O)[C@H](C)NC(=O)CCc1c[nH]cn1)[C@@H](C)O)[C@@H](C)O)C(C)C)C(=O)N[C@@H](CCC(=O)O)C(=O)N[C@@H](Cc1ccccc1)C(=O)N[C@H](C(=O)N[C@@H](C)C(=O)N[C@@H](Cc1c[nH]c2ccccc12)C(=O)N[C@@H](CC(C)C)C(=O)N[C@H](C(=O)N[C@@H](CCCN=C(N)N)C(=O)NCC(=O)N[C@@H](CCCN=C(N)N)C(=O)NCC(=O)O)C(C)C)[C@@H](C)CC)C(=O)O (some centres not stated)
6 | 0.0056 | CCCCCCCCCC(CCCCC(=O)NCCCCC(NC(=O)CNC(=O)[C@H](CCCN=C(N)N)NC(=O)CNC(=O)[C@H](CCCN=C(N)N)NC(=O)[C@@H](NC(=O)[C@H](CC(C)C)NC(=O)[C@H](Cc1c[nH]c2ccccc12)NC(=O)[C@H](C)NC(=O)[C@@H](NC(=O)[C@H](Cc1ccccc1)NC(=O)[C@H](CCC(=O)O)NC(=O)[C@H](CCCN=C(N)N)NC(=O)[C@H](C)NC(=O)[C@H](C)NC(=O)[C@H](CCC(N)=O)NC(=O)CNC(=O)[C@H](CCC(=O)O)NC(=O)[C@H](CC(C)C)NC(=O)[C@H](Cc1ccc(O)cc1)NC(=O)[C@H](CO)NC(=O)[C@H](CO)NC(=O)[C@@H](NC(=O)[C@H](CC(=O)O)NC(=O)[C@H](CO)NC(=O)[C@@H](NC(=O)[C@H](Cc1ccccc1)NC(=O)[C@@H](NC(=O)CNC(=O)[C@H](CCC(=O)O)NC(=O)[C@H](C)NC(=O)[C@@H](N)Cc1c[nH]cn1)[C@@H](C)O)[C@@H](C)O)C(C)C)[C@@H](C)CC)C(C)C)C(=O)O)C(=O)O (some centres not stated)
7 | 0.236 | CCCCCCCC(=O)NCCCC[C@H](NC(=O)[C@@H](NC(=O)[C@H](CC(C)C)NC(=O)[C@H](Cc1c[nH]c2ccccc12)NC(=O)[C@H](C)NC(=O)[C@@H](NC(=O)[C@H](Cc1ccccc1)NC(=O)[C@H](CCC(=O)O)NC(=O)[C@H](CCCN=C(N)N)NC(=O)[C@H](C)NC(=O)[C@H](C)NC(=O)[C@H](CCC(N)=O)NC(=O)CNC(=O)[C@H](CCC(=O)O)NC(=O)[C@H](CC(C)C)NC(=O)[C@H](Cc1ccc(O)cc1)NC(=O)[C@H](CO)NC(=O)[C@H](CO)NC(=O)[C@@H](NC(=O)[C@H](CC(=O)O)NC(=O)[C@H](CO)NC(=O)[C@@H](NC(=O)[C@H](Cc1ccccc1)NC(=O)[C@@H](NC(=O)CNC(=O)[C@H](CCC(=O)O)NC(=O)[C@H](C)NC(=O)CCc1c[nH]cn1)[C@@H](C)O)[C@@H](C)O)C(C)C)[C@@H](C)CC)C(C)C)C(=O)NCC(=O)N[C@@H](CCCN=C(N)N)C(=O)NCC(=O)O (Desaminohistidyl-AEGTFTSDVSSYLEGQAAREFIAWLVK(Octanoyl)GRG-OH)
